Measurements as given in paper PMC7898037, “Improving mitochondria and ER stability helps eliminate upper motor neuron degeneration that occurs due to mSOD1 toxicity and TDP‐43 pathology” (Clinical and Translational Medicine, 2021).

Columns and labels:
[1] = system: UMN apical dendrites of WT‐UeGFP mice; experiment: UMN apical dendrites with vacuoles, WT‐UeGFP mice; format: in vivo
Experimental: (§1) hSOD1^G93A‐UeGFP, prpTDP‐43^A315T‐UeGFP and WT‐UeGFP mice were weighed and the required NU‐9 dose per weight was calculated (20 or 100 mg/kg), which was administered once daily by oral gavage, starting at postnatal day (P)60 and continuing until P120. Animals from the untreated group received the vehicle (NMP and olive oil) only. For oral administration purposes, 20 ga × 38 mm plastic feeding tubes were used (Instech Laboratories, Inc). The gavage tip was inserted into the mouth directly over the tongue and into the pharynx. While observing the swallowing reflex, the tip was safely and smoothly slid into the esophagus. Once the administration was completed, the gavage tip was pulled straight out.
Mice were deeply anesthetized using ketamine (90 mg/kg) with xylazine (10 mg/kg), and transcardially perfused with 4% PFA in PBS. The brains were removed intact and postfixed (4% PFA, overnight) and stored in PBS with sodium azide (0.01%) at 4°C. Sections were cut in a coronal (50 µm) plane using a vibratome (Leica) and processed for immunocytochemical analyses.
The antibodies used are as follows: anti‐GFP (1:1000, Invitrogen; or 1:1000, Abcam) and anti‐misfolded SOD1 (B8H10, 1:250, Médimabs). Briefly, sections were treated with blocking solution (PBS, 0.05% BSA, 2% FBS, 1% Triton X‐100, and 0.1% saponin) for 30 min at room temperature and incubated with primary antibody diluted in blocking solution overnight at 4°C. Appropriate secondary fluorescent antibodies (1:500, AlexaFluor‐conjugated, Invitrogen) were added to the blocking solution at room temperature for 2 h in the dark.

[2] = system: UMNs in the motor cortex of WT‐UeGFP mice; experiment: UMN quantification in motor cortex, WT‐UeGFP mice; format: in vivo
Experimental: as §1
Since UMNs are genetically labeled with eGFP expression in the motor cortex of WT‐UeGFP, hSOD1^G93A‐UeGFP, and prpTDP‐43^A315T‐UeGFP mice, UMNs were identified based on the GFP expression. Quantitative analyses were performed on three matched rostrocaudal sections spanning the motor cortex. Three images per subject were taken to capture a 4× objective filed that encompass layer 5 of the motor cortex. An inverted epifluorescent Eclipse TE2000‐E microscope (Nikon) with the same exposure time and intensity was used. UMNs were counted only if their soma and apical dendrite were both visualized in the same 50‐µm thick section. Images were analyzed in ImageJ (NIH) using the Find maxima processing command to determine the local maxima within a predetermined region of interest that circumscribes the layer 5 of the motor cortex. A universal noise tolerance, which ignores the local maxima corresponding to background and autofluorescence, was applied to all images.

[3] = system: hSOD1^G93A‐UeGFP mice; experiment: Hanging wire test (max 60 s), hSOD1^G93A‐UeGFP mice; format: in vivo; design: Mean Diff. (wire hanging), vehicle vs. NU-9 / Mean (wire hanging): unit not given here; conditions: for Hanging wire test, group mean (Mean 1 / Mean 2): hSOD1G93A-UeGFP (GS) mice; for wire hanging, Average / Mean (wire hanging): hSOD1G93A-UeGFP
Experimental: as §1
Behavior data were collected from hSOD1^G93A‐UeGFP and WT‐UeGFP mice (starting at P60 and every 7 days until P116) and from prpTDP‐43^A315T‐UeGFP mice (at P60, P90, and P120) with the following number of mice for each group: WT‐UeGFP vehicle (n = 10), hSOD1^G93A‐UeGFP vehicle (n = 6), WT‐UeGFP 20 mg/kg/day NU‐9 (n = 5), hSOD1^G93A‐UeGFP 20 mg/kg/day NU‐9 (n = 7), WT‐UeGFP 100 mg/kg/day NU‐9 (n = 11), hSOD1^G93A‐UeGFP 100 mg/kg/day NU‐9 (n = 9), prpTDP‐43^A315T‐UeGFP untreated (n ≥ 3), and prpTDP‐43^A315T‐UeGFP 100 mg/kg/day NU‐9 (n = 4) (Table S3).
Mice were placed on a wire mesh, which was then inverted and suspended above the home cage; the time when the animal fell was recorded. This test was performed three times for a maximum of 60 s each session, with a 1‐min rest period between each trial. The average performance for each session is presented as the average of the three trials.

[4] = cited from earlier work
[5] = design: method as in PMID 22189273, PMID 22837812; conditions: cited from earlier work
[6] = system: hERG channel; conditions: cited from earlier work
[7] = WT-UeGFP mice, NU-9 100 mg/kg/day
[8] = WT-UeGFP vehicle minus NU-9 100 mg/kg/day, Tukey's multiple comparisons test
[9] = WT‐UeGFP mice, 100 mg/kg/day oral gavage P60–P120

C[C@H](Oc1cc(C(F)(F)F)cc(C(F)(F)F)c1)C1CC(=O)CC(=O)C1 [NU‐9]
Mean, Fig. 4G (UMN apical dendrites with vacuoles) [1, 7]: 16.43 | Mean, Fig. 7E (UMN apical dendrites with vacuoles) [1, 7]: 16.43 | Mean Diff., Fig. 7E, G vehicle vs. G NU-9 (100) [1, 8]: 17.11 | Mean Diff., Fig. 4G, G Vehicle vs. G NU-9 (100) ([1]; WT-UeGFP vehicle minus WT-UeGFP NU-9 100 mg/kg/day, Tukey's multiple comparisons test): 11.77 | percentage of UMN apical dendrites with vacuoles [1, 9]: 16% ± 5% | Mean, Fig. 5E (UMN quantification in motor cortex) [2, 7]: 65.5 | Mean, Fig. 7H (UMN quantification in motor cortex) [2, 7]: 65.5 | Mean Diff., Fig. 5E, G Vehicle vs. G NU-9 (100) [2, 8]: -6.183 | Mean Diff., Fig. 7H, G Vehicle vs. G NU-9 (100) [2, 8]: -6.183 | average number of UMNs per section in the motor cortex [2, 9]: 66 ± 1 UMNs | Hanging wire test, group mean (Mean 1 / Mean 2) ([3]; NU-9 20 mg/kg/day, P102, max 60 s): 43 s | Hanging wire test, group mean (Mean 1 / Mean 2) ([3]; NU-9 20 mg/kg/day, P109, max 60 s): 37.48 s | Hanging wire test, group mean (Mean 1 / Mean 2) ([3]; NU-9 20 mg/kg/day, P116, max 60 s): 27.33 s | Hanging wire test, group mean (Mean 1 / Mean 2) ([3]; NU-9 100 mg/kg/day, P102, max 60 s): 53.3 s | Hanging wire test, group mean (Mean 1 / Mean 2) ([3]; NU-9 100 mg/kg/day, P109, max 60 s): 58.89 s | Hanging wire test, group mean (Mean 1 / Mean 2) ([3]; NU-9 100 mg/kg/day, P116, max 60 s): 51.15 s | Hanging wire test, mean difference vehicle minus NU-9 ([3]; hSOD1G93A-UeGFP (GS) vehicle vs. NU-9 20 mg/kg/day, P102): -0.6667 s | Hanging wire test, mean difference vehicle minus NU-9 ([3]; hSOD1G93A-UeGFP (GS) vehicle vs. NU-9 20 mg/kg/day, P109): 6.746 s | Hanging wire test, mean difference vehicle minus NU-9 ([3]; hSOD1G93A-UeGFP (GS) vehicle vs. NU-9 20 mg/kg/day, P116): -4.722 s | Hanging wire test, mean difference vehicle minus NU-9 ([3]; hSOD1G93A-UeGFP (GS) vehicle vs. NU-9 100 mg/kg/day, P102): -10.96 s | Hanging wire test, mean difference vehicle minus NU-9 ([3]; hSOD1G93A-UeGFP (GS) vehicle vs. NU-9 100 mg/kg/day, P109): -14.67 s | Hanging wire test, mean difference vehicle minus NU-9 ([3]; hSOD1G93A-UeGFP (GS) vehicle vs. NU-9 100 mg/kg/day, P116): -28.54 s | Mean Diff. (wire hanging), vehicle vs. NU-9 ([3]; hSOD1G93A-UeGFP vehicle vs. NU-9 20 mg/kg/day, P60): -0.5238 | Mean Diff. (wire hanging), vehicle vs. NU-9 ([3]; hSOD1G93A-UeGFP vehicle vs. NU-9 20 mg/kg/day, P67): 4.175 | Mean Diff. (wire hanging), vehicle vs. NU-9 ([3]; hSOD1G93A-UeGFP vehicle vs. NU-9 20 mg/kg/day, P74): -3.46 | Mean Diff. (wire hanging), vehicle vs. NU-9 ([3]; hSOD1G93A-UeGFP vehicle vs. NU-9 20 mg/kg/day, P81): -1.095 | Mean Diff. (wire hanging), vehicle vs. NU-9 ([3]; hSOD1G93A-UeGFP vehicle vs. NU-9 20 mg/kg/day, P88): -2.452 | Mean Diff. (wire hanging), vehicle vs. NU-9 ([3]; hSOD1G93A-UeGFP vehicle vs. NU-9 20 mg/kg/day, P95): -5.254 | Mean Diff. (wire hanging), vehicle vs. NU-9 ([3]; hSOD1G93A-UeGFP vehicle vs. NU-9 20 mg/kg/day, P102): -0.6667 | Mean Diff. (wire hanging), vehicle vs. NU-9 ([3]; hSOD1G93A-UeGFP vehicle vs. NU-9 20 mg/kg/day, P109): 6.746 | Mean Diff. (wire hanging), vehicle vs. NU-9 ([3]; hSOD1G93A-UeGFP vehicle vs. NU-9 20 mg/kg/day, P116): -4.722 | Mean Diff. (wire hanging), vehicle vs. NU-9 ([3]; hSOD1G93A-UeGFP vehicle vs. NU-9 100 mg/kg/day, P60): -5.333 | Mean Diff. (wire hanging), vehicle vs. NU-9 ([3]; hSOD1G93A-UeGFP vehicle vs. NU-9 100 mg/kg/day, P67): 1.222 | Mean Diff. (wire hanging), vehicle vs. NU-9 ([3]; hSOD1G93A-UeGFP vehicle vs. NU-9 100 mg/kg/day, P74): -7.519 | Mean Diff. (wire hanging), vehicle vs. NU-9 ([3]; hSOD1G93A-UeGFP vehicle vs. NU-9 100 mg/kg/day, P81): -5.148 | Mean Diff. (wire hanging), vehicle vs. NU-9 ([3]; hSOD1G93A-UeGFP vehicle vs. NU-9 100 mg/kg/day, P88): -9.13 | Mean Diff. (wire hanging), vehicle vs. NU-9 ([3]; hSOD1G93A-UeGFP vehicle vs. NU-9 100 mg/kg/day, P95): -7.704 | Mean Diff. (wire hanging), vehicle vs. NU-9 ([3]; hSOD1G93A-UeGFP vehicle vs. NU-9 100 mg/kg/day, P102): -10.96 | Mean Diff. (wire hanging), vehicle vs. NU-9 ([3]; hSOD1G93A-UeGFP vehicle vs. NU-9 100 mg/kg/day, P109): -14.67 | Mean Diff. (wire hanging), vehicle vs. NU-9 ([3]; hSOD1G93A-UeGFP vehicle vs. NU-9 100 mg/kg/day, P116): -28.54 | wire hanging, Average ([3]; NU-9 20 mg/kg/day po, P60): 55.1905 s | wire hanging, Average ([3]; NU-9 20 mg/kg/day po, P67): 51.7143 s | wire hanging, Average ([3]; NU-9 20 mg/kg/day po, P74): 55.2381 s | wire hanging, Average ([3]; NU-9 20 mg/kg/day po, P81): 54.0952 s | wire hanging, Average ([3]; NU-9 20 mg/kg/day po, P88): 52.9524 s | wire hanging, Average ([3]; NU-9 20 mg/kg/day po, P95): 54.8095 s | wire hanging, Average ([3]; NU-9 20 mg/kg/day po, P102): 43 s | wire hanging, Average ([3]; NU-9 20 mg/kg/day po, P109): 37.4762 s | wire hanging, Average ([3]; NU-9 20 mg/kg/day po, P116): 27.3333 s | Mean (wire hanging) ([3]; NU-9 20 mg/kg/day, P60): 55.19 | Mean (wire hanging) ([3]; NU-9 20 mg/kg/day, P67): 51.71 | Mean (wire hanging) ([3]; NU-9 20 mg/kg/day, P74): 55.24 | Mean (wire hanging) ([3]; NU-9 20 mg/kg/day, P81): 54.1 | Mean (wire hanging) ([3]; NU-9 20 mg/kg/day, P88): 52.95 | Mean (wire hanging) ([3]; NU-9 20 mg/kg/day, P95): 54.81 | wire hanging, Average ([3]; NU-9 100 mg/kg/day po, P60): 60 s | wire hanging, Average ([3]; NU-9 100 mg/kg/day po, P67): 54.6667 s | wire hanging, Average ([3]; NU-9 100 mg/kg/day po, P74): 59.2963 s | wire hanging, Average ([3]; NU-9 100 mg/kg/day po, P81): 58.1481 s | wire hanging, Average ([3]; NU-9 100 mg/kg/day po, P88): 59.6296 s | wire hanging, Average ([3]; NU-9 100 mg/kg/day po, P95): 57.2593 s | wire hanging, Average ([3]; NU-9 100 mg/kg/day po, P102): 53.2963 s | wire hanging, Average ([3]; NU-9 100 mg/kg/day po, P109): 58.8889 s | wire hanging, Average ([3]; NU-9 100 mg/kg/day po, P116): 51.1481 s | Mean (wire hanging) ([3]; NU-9 100 mg/kg/day, P60): 60 | Mean (wire hanging) ([3]; NU-9 100 mg/kg/day, P67): 54.67 | Mean (wire hanging) ([3]; NU-9 100 mg/kg/day, P74): 59.3 | Mean (wire hanging) ([3]; NU-9 100 mg/kg/day, P81): 58.15 | Mean (wire hanging) ([3]; NU-9 100 mg/kg/day, P88): 59.63 | Mean (wire hanging) ([3]; NU-9 100 mg/kg/day, P95): 57.26 | hanging wire test, latency to fall ([3]; hSOD1^G93A‐UeGFP mice, 100 mg/kg/day, P102): 53.3 ± 2.9 s | plasma stability t 1/2 [4]: > 2 h | Plasma protein binding [5]: 90% | inhibition of the hERG channel [6]: little inhibition | hERG antagonism ([6]; up to 30 µM): No inhibition up to 30 µM
